# Source: PubChem BioAssay (NCI)
# Several values for one entry are separate records, joined by “and”; a condition that tells them apart may be missing. Equal values may be shown once.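 Five compound concentrations were applied to cells in 96-well plates for 48 hours; endpoints were derived by simple linear interpolation of the resulting dose-response curve. GI50 marks 50% less growth. TGI: total growth inhibition.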
# How the values were obtained:
# Assay in all cases: DTP human tumour cell line panel, 48 h
# 786-0 renal = system: 786-0 renal
# IGROV1 ovarian = system: IGROV1 ovarian
# M14 melanoma = system: M14 melanoma
# RPMI-8226 leukemia = system: RPMI-8226 leukemia
# SF-268 CNS = system: SF-268 CNS
# SK-MEL-2 melanoma = system: SK-MEL-2 melanoma
# SK-MEL-5 melanoma = system: SK-MEL-5 melanoma
# SNB-75 CNS = system: SNB-75 CNS
# T-47D breast = system: T-47D breast
# BT-549 breast = system: BT-549 breast
Compound,TGI (786-0 renal),TGI (IGROV1 ovarian),TGI (M14 melanoma),TGI (RPMI-8226 leukemia),TGI (SF-268 CNS),TGI (SK-MEL-2 melanoma),TGI (SK-MEL-5 melanoma),TGI (SNB-75 CNS),TGI (T-47D breast),GI50 (786-0 renal),GI50 (BT-549 breast),TGI (BT-549 breast),GI50 (IGROV1 ovarian),GI50 (M14 melanoma),GI50 (RPMI-8226 leukemia),GI50 (SF-268 CNS),GI50 (SK-MEL-2 melanoma),GI50 (SK-MEL-5 melanoma),GI50 (SNB-75 CNS)
CC1CC(C2=CC=CCS2)=Nc2ccccc2S1 (stereo not drawn),> 100 µM,> 100 µM,> 100 µM,> 100 µM,> 100 µM,> 100 µM,> 100 µM,78.6 µM,–,–,–,–,–,–,–,–,–,–,–
CC(C)/C=C1\CCC(CN2CCCC2)C1=O (stereo not drawn),4.8 µM,> 62.5 µM,24.2 µM,3.5 µM,43.6 µM,37.7 µM,33.2 µM,–,–,–,–,–,–,–,–,–,–,–,–
CCOC(=O)Nc1cc2nnc(-c3ccccc3)nc2c(N)n1,27.1 µM,> 100 µM,> 100 µM,74.3 µM,> 100 µM,> 100 µM,35.7 µM,61.6 µM,–,–,–,–,–,–,–,–,–,–,–
Clc1ncnc(Cl)c1Cl,> 100 µM,> 100 µM,> 100 µM,> 100 µM,> 100 µM,–,> 100 µM,> 100 µM,> 100 µM,–,–,–,–,–,–,–,–,–,–
CC(C)(C)NNC(=O)/C(=C/c1ccc([N+](=O)[O-])cc1)NC(=O)c1ccccc1,> 100 µM,> 100 µM,> 100 µM,> 100 µM,> 100 µM,> 100 µM,> 100 µM,> 100 µM,–,–,–,–,–,–,–,–,–,–,–
COC(=O)C1=C(c2ccc(OC)c(OC)c2)OC(c2ccc(OC)c(OC)c2)C1 (stereo not drawn),> 100 µM,> 100 µM,> 100 µM,> 100 µM,> 100 µM,> 100 µM,34.3 µM,> 100 µM,–,–,–,–,–,–,–,–,–,–,–
CCOc1ccccc1NC(=O)CC1C(=O)Nc2ccccc2S1=O (stereo not drawn),> 100 µM,> 100 µM,> 100 µM,46.1 µM,> 100 µM,> 100 µM,> 100 µM,> 100 µM,–,–,–,–,–,–,–,–,–,–,–
COc1cc(/C=C/c2ccncc2)cc(OC)c1OC,> 100 µM,> 100 µM,> 100 µM,> 100 µM,> 100 µM,–,> 100 µM,> 100 µM,–,–,–,–,–,–,–,–,–,–,–
CS/C(=N\C(=S)N(C)C)N(c1ccccc1)c1nc(=[N+](C)C)ss1,39.3 µM,> 100 µM,16.7 µM,6.24 µM,26.4 µM,36.6 µM,–,19.1 µM,–,–,–,–,–,–,–,–,–,–,–
COc1cc2c(cc1O)CC[C@@H]1[C@@H]2CC[C@]2(C)[C@@H](NCCN(C)C)CC[C@@H]12,0.831 µM,0.954 µM,0.213 µM,0.665 µM,0.753 µM,0.517 µM,0.166 µM,0.378 µM,–,0.383 µM,0.334 µM,0.858 µM,0.407 µM,0.0822 µM,0.159 µM,0.267 µM,0.127 µM,0.0694 µM,0.0613 µM
O=C(Nc1ccc(Cl)cc1Cl)C1C(=O)N(c2ccc(Cl)cc2Cl)C(=O)/C1=N\Nc1ccc([N+](=O)[O-])cc1[N+](=O)[O-] (stereo not drawn),> 100 µM,> 100 µM,> 100 µM,69.5 µM,> 100 µM,> 100 µM,> 100 µM,97.7 µM,–,–,–,–,–,–,–,–,–,–,–
O=C(Nc1c(O)[nH]c(=S)[nH]c1=O)c1ccccc1F,> 100 µM,> 100 µM,> 100 µM,> 100 µM,> 100 µM,> 100 µM,> 100 µM,> 100 µM,–,–,–,–,–,–,–,–,–,–,–
CN(C)c1ccc2c(=O)c3ccccc3oc2n1,> 100 µM,> 100 µM,> 100 µM,> 100 µM,> 100 µM,> 100 µM,> 100 µM,> 100 µM,–,–,–,–,–,–,–,–,–,–,–
NC(=O)NNCc1ccccc1,> 100 µM,> 100 µM,> 100 µM,> 100 µM,> 100 µM,> 100 µM,> 100 µM,–,> 100 µM,–,–,> 100 µM,–,–,–,–,–,–,–
Cc1ccc(S(=O)(=O)N[C@H](C(=O)O)c2ccccc2)cc1,> 100 µM,> 100 µM,> 100 µM,> 100 µM,> 100 µM,> 100 µM,> 100 µM,> 100 µM,–,–,–,–,–,–,–,–,–,–,–
Cc1ccc(NC(=O)c2cc3cc(N=Nc4ccc(Br)cc4)ccc3oc2=O)cc1,> 100 µM,–,–,> 100 µM,> 100 µM,> 100 µM,> 100 µM,> 100 µM,–,–,–,–,–,–,–,–,–,–,–
N#Cc1ccccc1NC(=O)/C(=N\N)C(C(=O)c1ccncc1)C1OC(=O)c2ccccc21 (stereo not drawn),> 100 µM,> 100 µM,> 100 µM,> 100 µM,> 100 µM,> 100 µM,> 100 µM,–,–,–,–,–,–,–,–,–,–,–,–
CC1CC[C@]2(C(=O)O)CCC3(COC(=O)/C=C\c4ccc(O)cc4)C(=CCC4[C@@]5(C)CC[C@H](O)C(C)(C)C5CC[C@]43C)[C@@H]2[C@H]1C (stereo partly drawn),43.4 µM,26.8 µM,37.7 µM,> 100 µM,30.8 µM,51.8 µM,40.7 µM,80.9 µM,–,–,–,–,–,–,–,–,–,–,–
COc1cc(C2c3[nH]c4ccccc4c3C[C@H]3COC(=O)N23)cc(OC)c1OC (stereo partly drawn),> 100 µM,> 100 µM,8.97 µM,< 0.01 µM,> 100 µM,> 100 µM,–,> 100 µM,–,< 0.01 µM,–,–,0.0655 µM and < 0.01 µM,–,< 0.01 µM,< 0.01 µM,< 0.01 µM,< 0.01 µM,< 0.01 µM
